Data: patent US10682388B2, “Targeting of PELP1 in cancer therapy” (THE BOARD OF REGENTS OF THE UNIVERSITY OF TEXAS SYSTEM, priority 2014, dated 2020)
“Also recorded” adds a separate entry of the source.

Columns and labels:
[1] = molecular target: T1, PELP1-G9a complex (Homo sapiens, UniProt Q8IZL8); assay: In vitro peptide competition assay, G9a-GST on glutathione beads with purified PELP1; type: binding; settings: peptides 2, 5, 10 μM, 2 hours, FIGS. 2C, 7B, 9
T1 construct: purified bacterial, full-length PELP1; host or cells: bacteria (PELP1)
T1 sequence (Q8IZL8 2-1130, one chain of several): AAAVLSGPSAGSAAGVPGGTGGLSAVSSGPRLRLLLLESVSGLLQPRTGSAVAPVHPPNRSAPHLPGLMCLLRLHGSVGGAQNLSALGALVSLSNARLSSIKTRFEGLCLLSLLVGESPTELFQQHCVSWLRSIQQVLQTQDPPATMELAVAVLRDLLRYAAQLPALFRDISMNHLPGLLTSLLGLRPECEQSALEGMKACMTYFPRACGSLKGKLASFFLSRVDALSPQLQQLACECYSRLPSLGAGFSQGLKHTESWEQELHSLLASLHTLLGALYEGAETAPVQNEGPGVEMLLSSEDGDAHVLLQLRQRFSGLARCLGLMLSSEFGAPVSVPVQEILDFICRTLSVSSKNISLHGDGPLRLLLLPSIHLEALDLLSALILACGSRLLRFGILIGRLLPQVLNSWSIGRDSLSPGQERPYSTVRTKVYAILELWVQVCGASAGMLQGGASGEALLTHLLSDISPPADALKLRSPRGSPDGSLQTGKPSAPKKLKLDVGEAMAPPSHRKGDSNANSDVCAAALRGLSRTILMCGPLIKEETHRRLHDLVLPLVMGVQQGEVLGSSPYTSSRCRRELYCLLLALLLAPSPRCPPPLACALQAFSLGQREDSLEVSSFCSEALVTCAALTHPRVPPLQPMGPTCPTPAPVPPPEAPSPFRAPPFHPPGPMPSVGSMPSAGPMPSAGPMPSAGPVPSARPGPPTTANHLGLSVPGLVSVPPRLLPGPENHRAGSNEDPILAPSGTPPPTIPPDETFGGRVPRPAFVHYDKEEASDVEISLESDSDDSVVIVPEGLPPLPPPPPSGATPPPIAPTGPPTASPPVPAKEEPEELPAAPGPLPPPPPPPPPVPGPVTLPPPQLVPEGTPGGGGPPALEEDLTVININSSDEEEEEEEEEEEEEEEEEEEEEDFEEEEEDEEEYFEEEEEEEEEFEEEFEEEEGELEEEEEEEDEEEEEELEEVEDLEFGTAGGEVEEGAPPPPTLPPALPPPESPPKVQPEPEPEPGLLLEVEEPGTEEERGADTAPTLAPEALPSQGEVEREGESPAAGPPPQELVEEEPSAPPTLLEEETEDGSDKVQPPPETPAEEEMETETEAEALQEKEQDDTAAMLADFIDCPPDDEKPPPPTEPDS
Protocol: FIGS. 2A-D. (FIG. 2A) Immunoprecipitation was performed on nuclear lysates obtained from ZRPELP1 cells grown in 5% DCC for 72 hours and treated with estradiol 10^−7 M for 12 hours. PELP1 was immunoprecipitated and western blotting was performed for PELP1 and G9a expression with IgG as the control. (FIG. 2B) Various fragments of PELP1 bound to glutathione beads were incubated with recombinant G9a for 2 hours. Beads were washed, run on an SDS-PAGE gel and immunoblotted for G9a expression. GST tag alone is shown as control. (FIG. 2C) Recombinant G9a-GST was bound to glutathione beads and incubated with purified PELP1 and peptides for 2 hours. Beads were washed and run on SDS-PAGE gel. (FIG. 2D) ZR75 cells were transfected with ERE-luciferase, PELP1 and/or G9a plasmids and treated with peptide for 24 hours and estradiol 10^−7 M for 12 hours. Relative luciferase activity is shown.
FIGS. 7A-E. (FIG. 7A) Bacterial purified PELP1 was incubated with biotin-tagged peptides bound to avidin beads for one hour. Beads were washed, run on SDS-PAGE gel and probed for PELP1 expression. Input of bacterial PELP1 is shown as control. (FIG. 7B) Recombinant G9a-GST was bound to glutathione beads and incubated with purified PELP1 and peptides for 2 hours. Beads were washed and run on SDS-PAGE gel. (+2 μM, ++5 μM, +++10 μM). (FIG. 7C) ZRGST and ZRPELP1GST cells were transfected in triplicate with TopFlash β-catenin reporter and treated with TAT or PIP1 (10 μM) for 24 hours. Relative luciferase activity is shown. (FIG. 7D) MCF7vec and MCF7PELP1 cells were treated with TAT or PIP1 (10 μM) and toxicity was measured by CytoTox-Flour Cytotoxicity Assay. (FIG. 7E) ZR75 and ZR75PELP1 cells were treated with TAT, PIP1 or PIP2 for 24 hours and immunoblotted for PELP1 and ERα expression with actin as the loading control.
FIG. 9. […]
Peptides were linked to EZ-Link NHS-Biotin (Thermo Scientific) per manutfacturer's protocol. […] Beads were washed 3× with IP buffer (20 mM HEPES pH 7.9, 20% glycerol, 0.1% triton-x, 100 mM KCl), eluted with SDS-dye, and PELP1 expression was determined by western blotting. […]

[2] = test system: ZRPELP1 cells; assay: Initial screen, proliferation assay of PELP1-overexpressing breast cancer cells; type: cell-based, Human; settings: peptide every 3 days, absorbance at 7 days, FIG. 1B
Protocol: FIGS. 1A-D. (FIG. 1A) Diagram for yeast two hybrid screen to identify PELP1 binding peptides. Four regions of PELP1 were tagged with the binding domain and a library of 10^6 random peptides (Clontech) were bound to an activation domain. The number of positive colonies per region of PELP1 are shown in the graph. (FIG. 1B) A proliferation assay was performed with […]1 cells plated in a 96 well plate, treated with peptide every 3 days and absorbance was measured at 7 days. (FIG. 1C) ZR75 were plated in a 6-well plate on coverslips in 8% RPMI and treated with 10 uM FITC labeled peptide for 30, 60, or 120 minutes. They were then fixed with pararformaldehyde, stained for PELP1 (red) and DAPI (blue), and imaged by confocal microscopy to monitor intracellular delivery. (FIG. 1D) ZR75 cells were starved of estrogen for 72 hours and treated with estradiol 10^-7 M for 12 hours. Nuclear lysate was incubated with biotin-tagged peptides bound to avidin beads for one hour. Beads were washed, run on SDS-PAGE gel and probed for PELP1 expression. Input of nuclear lysate is shown as control. Cell proliferation rates were measured by using MTT Cell Viability Assay in 96-well plates. Model cells were seeded in 96-well plates (1×10^3 cells/well) in DMEM or RPMI medium containing 10% serum. After an overnight incubation, cells were treated with varying concentrations of the peptides for 3-7 days and growth inhibition was determined by using traditional MTT assay (Sigma) following manufacturer's instructions.

[3] = test system: MDA-MB-231 and MDA-MB-468; assay: MTT proliferation assay, triple negative breast cancer cell lines; type: cell-based; settings: preliminary studies
Protocol: FIGS. 8A-C. (FIG. 8A) ZR75PELP1KD cells were treated in triplicate with TAT or PIP1 (10, 20, or 50 μM) every 3 days and proliferation was measured by MTT assay on day 7. (FIG. 8B) MCF7PELP1KD cells were treated in triplicate with TAT or PIP1 (10, 20, or 50 μM) every 3 days and proliferation was measured by MTT assay on day 7. (FIG. 8C) MDAMB231 and MDAMB468 cells were treated in triplicate with TAT or PIP1 (10 μM) every 3 days and proliferation was measured by MTT assay on day 7. Cell proliferation rates were measured by using MTT Cell Viability Assay in 96-well plates. Model cells were seeded in 96-well plates (1×10^3 cells/well) in DMEM or RPMI medium containing 10% serum. After an overnight incubation, cells were treated with varying concentrations of the peptides for 3-7 days and growth inhibition was determined by using traditional MTT assay (Sigma) following manufacturer's instructions.

[4] = test system: TNBC (MDA-MB-231 and MDA-MB-468) and ER-positive (ZR-75 and MCF-7) breast cancer cell lines; assay: MTT proliferation assay of PIP3, TNBC and ER-positive breast cancer cell lines; type: cell-based; settings: 10 μM and dose response, FIGS. 13A-C
Protocol: FIGS. 13A-C. […] (FIG. 13A) Breast cancer cells were treated with vehicle or 10 μM PIP3 and proliferation was measured by using the MTT assay. (FIGS. 13B-C) Dose response curves for PIP3. Cell proliferation rates were measured by using MTT Cell Viability Assay in 96-well plates. Model cells were seeded in 96-well plates (1×10^3 cells/well) in DMEM or RPMI medium containing 10% serum. After an overnight incubation, cells were treated with varying concentrations of the peptides for 3-7 days and growth inhibition was determined by using traditional MTT assay (Sigma) following manufacturer's instructions.

[5] = test system: T98G, LN229 and U251 glioma cells and patient-derived primary GBM cells; assay: MTT proliferation assay, glioma cell lines and primary GBM cells; type: cell-based; settings: FIGS. 15A-D
Protocol: FIGS. 15A-D. PIPs inhibit proliferation of glioma cells. (FIGS. 15A-B) T98G, LN229 and U251 glioma cells were treated with vehicle or varying concentration of PIP1 or PIP3, and proliferation was measured by using the MTT assay. (FIGS. 15C-D) Patient-derived primary GBM cells were treated with PIP1 or PIP3 and proliferation was measured using the MTT assay. Cell proliferation rates were measured by using MTT Cell Viability Assay in 96-well plates. Model cells were seeded in 96-well plates (1×10^3 cells/well) in DMEM or RPMI medium containing 10% serum. After an overnight incubation, cells were treated with varying concentrations of the peptides for 3-7 days and growth inhibition was determined by using traditional MTT assay (Sigma) following manufacturer's instructions.

[6] = test system: MCF7-TamR and MCF7-LTLT cells; assay: Therapy resistance assays, MTT; type: cell-based, Human; settings: MCF7-TamR and MCF7-LTLT, 10 μM, FIGS. 4D-E, 11
Protocol: (§1) FIGS. 4A-E. (FIG. 4A) ZR75vec, ZR75PELP1, MCF7vec and MCF7PELP1 cells were treated in triplicate with TAT, PIP1 or PIP1 deletions (Del1, Del2, Del3) at 10 uM every 3 days and proliferation was measured by MTT assay on day 7. (FIG. 4B) ZRPELP1 cells were transfected with ERE-luciferase and treated with TAT, PIP1, or PIP2 for 24 hours and with estradiol for 12 hours. Relative luciferase activity was measured in triplicate. (FIG. 4C) ZR75 cells were grown in 5% DCC media for 72 hours, treated with TAT or PIP1 every 3 days, and treated with estradiol 10^−7 M for 12 hours. Proliferation was measured in triplicate on day 7 by MTT assay at 595 nm. (FIG. 4D) MCF7-Letrozole resistant cells were grown in 5% DCC media for 72 hours, treated with TAT, PIP1 or PIP2 every 3 days, and letrozole or estradiol 10^−7 M for 12 hours. Proliferation was measured in triplicate on day 7 by MTT assay at 595 nm. (FIG. 4E) MCF7-Tamoxiefn resistant cells were grown in 5% DCC media for 72 hours, treated with TAT, PIP1 or PIP2 every 3 days, and tamoxifen or estradiol 10^−7 M for 12 hours. Proliferation was measured in triplicate on day 7 by MTT assay at 595 nm.
FIG. 11. Cell proliferation assay: letrozole-resistant MCF-7-LTLT cells and Tamoxifen resistant MCF7-Tam cells were treated with TAT, PIP1, or PIP2 (10 μM)+/− letrozole or Tamoxifen.
Tamoxifen (Tam) therapy resistant MCF7-TamR and letrozole resistant MCF7-LTLT cells were cultured in tamoxifen or letrozole (10^-7M) containing media in the presence or absence of peptides and proliferation was measured by MTT assay (Sigma) following manufacturer's instructions.

[7] = test system: ERE-luciferase in ZRPELP1 cells; assay: ERE-luciferase reporter gene assay in PELP1 overexpressing cells; type: cell-based, Human; settings: peptide 24 hours, estradiol 12 hours, compared to control TAT, FIGS. 4B, 10
Protocol: as §1
FIG. 10. ERE-luciferase assay. […]
Model cells were seeded in 6-well plates. […] Luciferase activity was measured by using the luciferase assay system (Promega, Madison, Wis.).

Row | Sequence | disruption of PELP1 interaction with G9a/EHMT2 [1] | PELP1-mediated breast cancer cell proliferation [2] | activity on TNBC cells [3] | growth of TNBC and ER-positive breast cancer cell lines [4] | concentration of potent activity on glioma proliferation [5] [µM] | proliferation of glioma cell lines and primary GBM cells ([5]; varying concentration) | proliferation of therapy resistant cell lines [6] | ERE activation (ERE-luciferase) [7]
1 | GRKKRRQRRRGG [TAT, reference compound] | no effect | no significant effect | – | – | – | – | – | –
2 | GRKKRRQRRRGGFKEWWRIDMVWLHRVRRNSY [PIP3] | – | – | has activity in triple negative cells | inhibited growth; also recorded: inhibits proliferation of breast cancer cells | 5 to 10 | significantly reduced their proliferation in a dose-dependent manner | – | –
3 | GRKKRRQRRRGGIMGRGLCMRGVVRGRGRN [PIP2] | disrupted by the addition of either of the two peptides in a dose-dependent manner | significantly inhibit PELP1-mediated proliferation | – | – | – | – | inhibited the proliferation; also recorded: efficiently reduce the growth of therapy resistant cells | significantly decreased ERE activation
